Measurements as given in patent publication US9169268B2, “Use of 7-alkoxy fangchinoline compounds in preventing, alleviating and/or treating depression” (Peking University, priority 2012, dated 2015).

Assays:
[1] = test system: GSK-3β phosphorylation level; assay: GSK-3β phosphorylation level in mouse brain regions (Western blot); format: in vivo; details: mice
Method: ICR mice were intragastrically administered of subject medicaments and vehicle. One hour later, brains of those treated mice were obtained after decapitation. Prefrontal lobe cortex, hipocampus, corpus striatum and hypothalamus were isolated and collected respectively. Then protein electrophoresis (Western blot) was carried out with each sample.

[2] = test system: chronic unpredictable stress (CUS) model in rats; assay: Sucrose solution preference in CUS model in rats; format: in vivo; details: 7 days
Method: (§1) The chronic unpredictable stress model is usually used as a depression model. The experimental method is as follows. Stimulation includes forced swimming (10° C., 6 min), tail clamping (1 cm from the tail tip, 1 min), water deprivation (24 h), fasting (24 h), isolated housing (24 h), tail suspension (1 h), immobility (2 h), high-speed horizontal oscillation (120 times/min, 1 h), foot shock for 45 minutes (mean 1 mA, time course 1 s, once/min). These stressors were randomly scheduled over a one-week period and repeated throughout the 23-day experiment. The non-stress control group was housed under normal conditions. Time: between 9:00 a.m. and 2:00 p.m. Since Day 15, the animals in each group were daily intragastrically administered with the subject medicament and double distilled water based on body weight (blank group and CUS model group) respectively, 60 minutes before the stress. […] Behavior and sleep electroencephalogram analyses were carried out on Day 22-23 of the stress. On Day 21, 60 minutes after the final administration, a sucrose solution intake test was carried out and sleep electroencephalogram was recorded simultaneously. On Day 22, EPM and forced swimming tests were carried out.

[3] = test system: forced swimming model in mice; assay: Forced swimming model in mice; format: in vivo
Method: A desperate behavior status of human beings may be simulated by an immobility status in a forced swimming model in mice. The mice were put into a cylindrical glass jar (height 20 cm, diameter 10 cm) with a water depth of 15 cm and water temperature of 25±1° C. The mice were allowed to pre-swim for 15 minutes before the experiment, and then were taken out, wiped dry at a warm place, and sent back into cages. In 24 hours, the mice received an intragastric administration; and 60 minutes after the administration, the mice were put into the above-mentioned environment. The accumulative immobility time of the mice in the jar during the 5-minute period of time after six minutes of swimming was measured. A decrease in immobility time was taken as evaluation index.

[4] = test system: chronic unpredictable stress (CUS) model in rats; assay: Autonomous movement in CUS model in rats; format: in vivo; details: 7 days
Method: as §1

GSK-3β = GSK-3β (Homo sapiens, UniProt P49841); assay: GSK-3β activity assay (Z′-LYTE); format: biochemical; details: n = 3; read-out: Mean EC50 in the inhibition of GSK-3β activity
Method: The GSK-3β phosphorylation level was determined by using a Z′-LYTE assay (Life Technologies). The assay was performed in a 384-well plate. The wells of the testing plate were divided into blank control wells (without the enzyme), enzyme control wells (without the testing substance), and testing wells (with the enzyme and the testing substance at various concentrations). The inhibition rate of the testing substance is expressed as: inhibition %=(E−S)/(E−B)×100, wherein E is the average emission ratio of enzyme control wells; B is the average emission ratio of blank control wells; S is the emission ratio of the testing sample wells. The median effective concentration of each compound (EC50 μM) was calculated by using the resultant inhibition rate of each sample at various concentrations.

[5] = test system: chronic unpredictable stress (CUS) model in rats; assay: Elevated plus-maze (EPM) anxiety test in CUS model in rats; format: in vivo
Method: as §1

[6] = test system: chronic unpredictable stress (CUS) model in rats; assay: Sleep electroencephalogram in CUS depression model in rats; format: in vivo
Method: The chronic unpredictable stress model is usually used as a depression model. The experimental method is as follows. Stimulation includes forced swimming (10° C., 6 min), tail clamping (1 cm from the tail tip, 1 min), water deprivation (24 h), fasting (24 h), isolated housing (24 h), tail suspension (1 h), immobility (2 h), high-speed horizontal oscillation (120 times/min, 1 h), foot shock for 45 minutes (mean 1 mA, time course 1 s, once/min). These stressors were randomly scheduled over a one-week period and repeated throughout the 23-day experiment. The non-stress control group was housed under normal conditions. Time: between 9:00 a.m. and 2:00 p.m. Since Day 15, the animals in each group were daily intragastrically administered with the subject medicament and double distilled water based on body weight (blank group and CUS model group) respectively, 60 minutes before the stress. Imipramine (intraperitoneally, IP) was adopted as a positive control. Behavior and sleep electroencephalogram analyses were carried out on Day 22-23 of the stress. On Day 21, 60 minutes after the final administration, a sucrose solution intake test was carried out and sleep electroencephalogram was recorded simultaneously. On Day 22, EPM and forced swimming tests were carried out.
Result 3: Sleep disturbance is one of the most common symptoms of neuropsychiatry. From a view of therapeutics, sleep disturbance is one of the most distressful events in patients suffered from nervous diseases and mental illness, especially in depression, and also one of major adverse events that may exacerbate the conditions of nervous disease and mental illness and impede the recovery in patients. For example, patients who are suffering from depression associated with insomnia may have an apparently higher incidence of a suicidal behavior, as compared with a non-insomnia group. Sleep disturbance in nervous and mental diseases can be simulated by using a CUS model in rats. […] Therefore, YH-200 could be useful for treating and ameliorating sleep disturbance in a patient suffering from depression (see, Table 4).

[7] = Serum AST and ALT in mice after 14 days of intragastric administration; format: in vivo; details: mouse, in vivo, 60 mg/kg/day
Method: Blood was collected from epicanthal, stood at room temperature for about 2 hours, and centrifuged for 12 minutes at 3000 r/min after coagulation. The serum was removed and centrifuged again. Alanine transaminase (ALT) and aspartate transaminase (AST) levels were determined

[8] = Day 0 (baseline, before dosing)

Chain of GSK-3β (P49841 whole entry): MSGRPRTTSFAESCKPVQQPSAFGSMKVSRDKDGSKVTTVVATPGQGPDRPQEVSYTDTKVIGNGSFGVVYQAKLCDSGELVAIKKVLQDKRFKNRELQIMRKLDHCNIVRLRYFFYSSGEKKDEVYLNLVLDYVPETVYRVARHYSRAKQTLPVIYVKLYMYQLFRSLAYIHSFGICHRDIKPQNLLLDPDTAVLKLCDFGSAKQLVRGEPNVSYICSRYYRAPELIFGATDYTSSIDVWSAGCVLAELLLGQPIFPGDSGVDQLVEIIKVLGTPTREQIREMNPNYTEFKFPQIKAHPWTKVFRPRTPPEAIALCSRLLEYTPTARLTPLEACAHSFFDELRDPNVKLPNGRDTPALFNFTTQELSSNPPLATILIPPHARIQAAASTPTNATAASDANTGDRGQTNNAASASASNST

**Q.** With CCOc1c(OC)cc2c3c1Oc1cc4c(cc1OC)CCN(C)C4Cc1ccc(cc1)Oc1cc(ccc1OC)CC3N(C)CC2 (stereo not shown) [Compound 3, 7-ethoxy fangchinoline] as the compound, how does the p-GSK-3β level ([1]; 30 mg/kg intragastric, 1 h, hypothalamus, versus blank control) read?
**A.** evidently increased

**Q.** What about the “influence on phosphorylated GSK-3β (p-GSK-3β) and total-GSK-3β” value ([1]; 30 mg/kg intragastric, 1 h, prefrontal lobe cortex, hipocampus and corpus striatum) of the same compound?
**A.** no evident influence

**Q.** What about the “total GSK-3β level” value ([1]; 60 mg/kg intragastric, 1 h, four brain sections) of the same compound?
**A.** no influence

**Q.** What about the p-GSK-3β level ([1]; 60 mg/kg intragastric, 1 h, prefrontal lobe cortex, hipocampus, corpus striatum and hypothalamus) of the same compound?
**A.** significantly increased

**Q.** And the “enhancement of GSK-3β phosphorylation level with pMPPI given intraperitoneally 15 minutes before” value ([1]; FIG. 3, prefrontal lobe cortex, hipocampus, corpus striatum and hypothalamus, n=6)?
**A.** could evidently inhibit

**Q.** What about the “enhancement of GSK-3β phosphorylation level with 5-HT2A receptor agonist DOI” value ([1]; FIG. 5, prefrontal lobe cortex, hipocampus, corpus striatum and hypothalamus, n=6) of the same compound?
**A.** inhibited

**Q.** And the Sucrose solution preference ([2]; 7.5 mg/kg intragastric daily)?
**A.** 82.3 ± 3.3^##,$$ %

**Q.** What about the Sucrose solution preference ([2]; 15 mg/kg intragastric daily) of the same compound?
**A.** 93.6 ± 4.6^##,$$ %

**Q.** What about the Sucrose solution preference ([2]; 30 mg/kg intragastric daily) of the same compound?
**A.** 98.1 ± 3.7^##,$$ %

**Q.** And the “anti-depression effect with 5-HT1A receptor antagonist pMPPI” value ([3]; FIG. 2, n=12-15)?
**A.** could be inhibited

**Q.** What about the “reduction of immobility time and extension of immobility latency period with 5-HT2A receptor agonist DOI” value ([3]; FIG. 4, n=12-15) of the same compound?
**A.** could be inhibited

**Q.** And the “Autonomous movement Distance” value ([4]; 7.5 mg/kg intragastric daily)?
**A.** 13612.65 ± 792.22^##,$$ mm

**Q.** And the “Autonomous movement Speed” value ([4]; 7.5 mg/kg intragastric daily)?
**A.** 45.38 ± 2.64^##,$$ mm/second

**Q.** What about the “Autonomous movement Distance” value ([4]; 15 mg/kg intragastric daily) of the same compound?
**A.** 14409.83 ± 664.54^##,$$ mm

**Q.** What about the “Autonomous movement Speed” value ([4]; 15 mg/kg intragastric daily) of the same compound?
**A.** 48.03 ± 4.02^##,$$ mm/second

**Q.** What about the “Autonomous movement Distance” value ([4]; 30 mg/kg intragastric daily) of the same compound?
**A.** 14636.14 ± 812.31^##,$$ mm

**Q.** What about the “Autonomous movement Speed” value ([4]; 30 mg/kg intragastric daily) of the same compound?
**A.** 48.78 ± 5.36^##,$$ mm/second

**Q.** What about the EC50 (GSK-3β) of the same compound?
**A.** 860 nM

**Q.** And the melting point?
**A.** 109.5 to 111 °C

**Q.** And the “Percentage of entries into open arms relative to total entries into arms” value ([5]; 7.5 mg/kg intragastric daily)?
**A.** 57.2 ± 1.8^##,$$ %

**Q.** What about the “Percentage of residence time in open arms” value (shortened to “Percentage of residence time”) ([5]; 7.5 mg/kg intragastric daily) of the same compound?
**A.** 69.1 ± 2.4^##,$$ %

**Q.** And the “Percentage of entries into open arms relative to total entries into arms” value ([5]; 15 mg/kg intragastric daily)?
**A.** 59.7 ± 2.2^##,$$ %

**Q.** What about the “Percentage of residence time” value ([5]; 15 mg/kg intragastric daily) of the same compound?
**A.** 72.3 ± 3.6^##,$$ %

**Q.** And the “Percentage of entries into open arms relative to total entries into arms” value ([5]; 30 mg/kg intragastric daily)?
**A.** 60.2 ± 2.0^##,$$ %

**Q.** What about the “Percentage of residence time” value ([5]; 30 mg/kg intragastric daily) of the same compound?
**A.** 71.8 ± 3.2^##,$$ %

**Q.** What about the “effect on the sleep disturbance” value ([6]; 30 mg/kg p.o.) of the same compound?
**A.** evident amelioration effect

**Q.** What about the “Deep sleep (SWS) Time” value [6, 8] of the same compound?
**A.** 39.31 ± 10.22 min

**Q.** And the “NREM sleep Time” value [6, 8]?
**A.** 174.44 ± 8.35 min

**Q.** And the “Rapid eye movement (REM) sleep Time” value [6, 8]?
**A.** 37.95 ± 6.28 min

**Q.** What about the “Total sleep Time” value [6, 8] of the same compound?
**A.** 212.40 ± 12.65 min

**Q.** What about the “Deep sleep (SWS) Time” value ([6]; Day 21, 30 mg/kg p.o.) of the same compound?
**A.** 48.18 ± 13.77 min

**Q.** What about the “NREM sleep Time” value ([6]; Day 21, 30 mg/kg p.o.) of the same compound?
**A.** 165.27 ± 7.97 min

**Q.** And the “Rapid eye movement (REM) sleep Time” value ([6]; Day 21, 30 mg/kg p.o.)?
**A.** 34.06 ± 1.75 min

**Q.** What about the “Total sleep Time” value ([6]; Day 21, 30 mg/kg p.o.) of the same compound?
**A.** 199.33 ± 9.11 min

**Q.** What about the ALT [7] of the same compound?
**A.** 82.1 ± 16.4 U/L

**Q.** And the AST [7]?
**A.** 102.3 ± 14.5 U/L

**Q.** What about the AST/ALT [7] of the same compound?
**A.** 1.25 ± 0.18
